In ChEMBL document CHEMBL1132466, “Asymmetric synthesis of 9-alkyl-2-benzyl-6,7-benzomorphans: characterization as novel sigma receptor ligands” (J Med Chem, 1999):

Assay: Affinity against Sigma opioid receptor type 1 using [3H](+)-pentazocine in guinea pig brain membranes

C[C@@H]1[C@@H]2Cc3ccc(O)cc3[C@@]1(C)CCN2Cc1ccccc1
Ki: 0.67 nM
